Laboratory results reported in the NIST ThermoML archive (doi:10.1021/je800934r).

Test: mn = molality of the nth substance listed, in mol/kg
Conditions: 101 kPa, Liquid; for viscosity: Capillary tube (Ostwald / Ubbelohde) method; for speed of sound: Pulse-echo method; for mass density: Vibrating tube method

CCCCCCCCCCCCc1ccccc1S(=O)(=O)[O-].[Na+] [sodium dodecylbenzenesulfonate (ILL DEFINED!)] + O
Conditions | mass density, 298.15 K [kg/m3] | mass density, 308.15 K [kg/m3] | speed of sound, 298.15 K [m/s] | speed of sound, 308.15 K [m/s] | viscosity, 298.15 K [mPa·s] | viscosity, 308.15 K [mPa·s]
m1 = 0.05 | 999.92 | 996.76 | 1498.7 | 1522.7 | 0.999 | 0.795
m1 = 0.1 | 1002.75 | 999.44 | 1500 | 1523.5 | 1.106 | 0.868
